{"source": "patent US11384115B2", "about": "“Nuclear sulfated oxysterol, potent regulator of lipid homeostasis, for therapy of hypercholesterolemia, hypertriglycerides, fatty liver diseases, and atherosclerosis” (Virginia Commonwealth University, priority 2004, dated 2022)", "key": {"[1]": {"assay": "Single peritoneal injection in mice, serum lipids and serum enzymes", "format": "in vivo", "description": "Administration to female mice (20-25 g weight) was by peritoneal injection once with or without 72 μg of the nuclear oxysterol in 100 μl of 0.9% NaCl containing 3 μl of ethanol. Twelve hrs following the injection, blood was harvested for analysis of triglycerides and cholesterol."}, "[2]": {"tested_on": "PPARγ", "assay": "PPRE promoter reporter gene-luciferase assay in H441 cells", "format": "cell-based, human", "description": "(§1) H441 cells were seeded in 96-well plates. When cell density reached 90-95%, the cells were transfected with an expression plasmid as indicated using a lipid-based FuGENE HD transfection reagent according to the manufacture (Roche, Indianapolis, Ind.). A synthetic renilla luciferase reporter, phrG-TK (Promega, Wisconsin, Wis.), was used as a luciferase internal standard. For PPRE reporter gene assay, 50 ng of pGL3-PPRE-acyl-CoA oxidase luciferase reporter, 50 ng of expression plasmid pCMX-PPARγ, and 50 ng of phrG-TK vector (internal standard) were cotransfected as per the manufacture's instruction. […] Luciferase activities were determined using the Dual-Glo Luciferase Assay System according to the manufacturer's protocol (Promega, Wisconsin, Wis.). The amount of luciferase activity was measured using a TopCount NXT Microplate Scintillation and Luminescence Counter (Packard, Meriden, Conn.) and normalized to the amount of phG-TK luciferase activity. Transfections were carried out in triplicate for each sample, and each experiment was repeated three times."}, "[3]": {"assay": "Liver triglycerides (Sudan IV staining) in mice on normal or high cholesterol diet", "format": "in vivo", "conditions": "normal or high cholesterol diet for 8 days", "excerpt": "To test the effect of diet on cholesterol levels, mice were provided with either a normal or high cholesterol diet for 8 days, and treated with the nuclear oxysterol as described above."}, "[4]": {"tested_on": "primary rat hepatocytes", "assay": "Bile acid synthesis rate, conversion of [14C]cholesterol into methanol/water-soluble products", "format": "cell-based", "conditions": "addition to primary rat hepatocytes", "description": "FIGS. 9A-9B. Effect of the nuclear oxysterol on cholesterol uptake and bile acid biosynthesis. Rat primary hepatocyes were treated with nuclear extracts (methanol/water phase) (A and B) or purified nuclear oxysterol dissolved in control nuclear extract (C) 24 hrs after plating them. Then [^14C]cholesterol was added as described in FIG. 1. Culture media were then harvested at 0, 6, 12, and 24 hrs and radioactivity quantified (A). Bile acid synthesis rates (B and C) were measured as the conversion of [^14C]cholesterol into methanol/water extractable counts as described in (9). Bile acid synthetic rates were determined by the addition of 2.5 μCi of [^14C]cholesterol to each […] mm plate of confluent primary rat hepatocyte cultures ( 2.5×10^7 cells) 24 hrs after plating. Media and cells were harvested […]. Conversion of [^14C]cholesterol into [^14C]-methanol-water soluble products was determined by scintillation counting after extraction with chloroform-methanol (2:1, vol/vol) of cells and of culture media. Rates of bile acid biosynthesis following recombinant adenovirus infection were calculated as the ratio of [^14C]-methanol-water soluble counts to the sum of chloroform plus methanol-water counts. Individual bile acids were identified by HPLC analysis as described above. […] The phases were collected separately and counted."}, "[5]": {"tested_on": "NFκB", "assay": "NFκB dependent reporter gene-Luc assay in H441 cells, TNFα-induced", "format": "cell-based, human", "description": "A, THP-1 macrophages were treated with 25HC3S or 25HC for 24 hrs followed by addition or no addition of TNFα for another 3 hrs. The nuclear NFκB levels were analyzed by Western blot. The data represent one typical result out of three experiments. […] The reporter gene expression was induced by incubating with 10 ng/ml of TNFα for 3 hrs. The left figure represents cells transfected with pNFκB dependent reporter gene-Luc plasmid alone; the right figure, represents cells co-transfected with PPARγ expression plasmid.\nas §1"}, "[6]": {"conditions": "female mice, 72 μg peritoneal injection once, 12 hrs"}, "[7]": {"conditions": "in vivo, only one administration"}}}
{"compound": "C[C@H](CCCC(C)(C)O)[C@H]1CC[C@H]2[C@@H]3CC=C4C[C@@H](OS(=O)(=O)O)CC[C@]4(C)[C@H]3CC[C@]12C", "note": "[25HC3S, 5-cholesten-3β, 25-diol 3-sulphate]", "values": [{"measurement": "activities of alkaline phosphotase, SGPT and SGOT in sera", "setting": "[1]; female mice, 72 μg peritoneal injection once", "result": "did not increase"}, {"measurement": "decrease of cholesterol levels in serum", "setting": "[1]; [6]", "result": 15, "unit": "%"}, {"measurement": "decrease of triglycerides in serum", "setting": "[1]; [6]", "result": 40, "unit": "%"}, {"measurement": "HDL", "setting": "[1]; [7]", "result": "significantly increases"}, {"measurement": "decrease of serum cholesterol and triglyceride", "setting": "[1]; [7]", "result": 20, "unit": "%"}, {"measurement": "PPARγ reporter gene activities in the presence of the antagonist T0070907", "setting": "[2]; H441, ACOX-PPRE reporter and PPARγ co-overexpression, 1 μM T0070907", "result": "failed"}, {"measurement": "PPRE activity relative to rosiglitazone", "setting": "[2]; at 25 μM", "result": "reached to a similar levels as that induced by the PPARγ agonist rosiglitazone"}, {"measurement": "triglyceride levels in liver tissues", "setting": "[3]", "result": "significantly decreased"}, {"measurement": "effect on bile acid synthetic rates", "setting": "[4]", "result": "very similar to those in cells directly treated with the nuclear extracts from the StarD1 overexpressing cells"}, {"measurement": "TNFα induction of NFκB dependent reporter gene expression", "setting": "[5]; H441, absence of PPARγ expression plasmid", "result": "failed to suppress"}, {"measurement": "reduction of TNFα induction of NFκB dependent reporter gene expression", "setting": "[5]; H441 co-transfected with PPARγ expression plasmid", "result": 50, "unit": "%"}, {"measurement": "suppression of NFκB reporter induction in the presence of PPARγ antagonist", "setting": "[5]; H441 co-transfected with PPARγ, T0070907", "result": "the suppression was blunted"}]}
